Converted amounts (≈) assume the structure as drawn. Like-named read-outs stand apart in the source and are kept apart here. A value given as a limit tells only on which side of the number the result lay.

For one series, the system named is B. lata BCC6. Format: cell-based, Burkholderia lata.
The subject of the next series is B. cenocepacia 140485. It is filed as cell-based, Burkholderia cenocepacia.
The next series deals with B. contaminans FFH-4004. It is filed as cell-based, Burkholderia contaminans.
The test system of another series is B. dolosa CEP021. Format: cell-based, Burkholderia dolosa.
A further series relates to B. ubonensis LMG 20358. It is filed as cell-based, Burkholderia ubonensis.
Another series deals with B. multivorans ATCC17616. Format: cell-based, Burkholderia multivorans.
The subject of series [1] is B. cenocepacia K56-2. Format: cell-based, Burkholderia cenocepacia. Particulars: 18 h.
For series [2], the system named is B. contaminans FFH-2050MA. Format: cell-based, Burkholderia contaminans.
In a further series the test system is B. contaminans MF16. Format: cell-based, Burkholderia contaminans.
The test system of series [3] is B. cenocepacia K56-2. Kind of series: Persister frequency assay. Particulars: 24 h.
The subject of the next series is C. elegans DH26. As to conditions: for Percent survival of C. elegans: 24 h; for Survival100/MIC Ratio: highest concentration with 100 percent survival divided by the compound's MIC.
Series [4] concerns B. cenocepacia K56-2 persister cells. Kind of series: Time kill of persister cells generated with ciprofloxacin. Format: cell-based, Burkholderia cenocepacia. As to conditions: in PBS, 3 h; MS-40S/MS-40 2× and 4× MIC, ciprofloxacin 5× MIC.
The mark [5] stands for this setting: B. cenocepacia K56-2, CAMHB, 37 °C.
Where [6] appears, read: Burkholderia cenocepacia, 140485.
The mark [7] stands for this setting: Burkholderia contaminans, FFH4004.
Setting [8] is: Burkholderia ubonensis, LMG20358.
[9] abbreviates: Burkholderia multivorans, ATCC17616.
Setting [10] is: Burkholderia contaminans, FFH2050MA.

A word on the MIC: it is the lowest concentration that inhibits growth of the organism. For `CC[P+](CC)(CC)[Au-][S]C1OC(CO)C(O)C(O)C1O` (mixture of isomers) [WB-16-EO9899], the MIC in the series on B. lata BCC6 (B. lata BCC6) was 128 µg/mL; in the series with B. cenocepacia 140485 (B. cenocepacia 140485), 32 µg/mL; with B. contaminans FFH-4004 (B. contaminans FFH-4004) it was above 128 µg/mL; in the series on B. dolosa CEP021 (B. dolosa CEP021), above 128 µg/mL; in the series on B. ubonensis LMG 20358 (B. ubonensis LMG 20358), above 128 µg/mL; in the series on B. multivorans ATCC17616 (B. multivorans ATCC17616), 128 µg/mL. In addition, the MIC was above 128 µg/mL in the series on B. cenocepacia K56-2 [1] (setting [5]), 128 µg/mL in series [2] (B. contaminans FFH-2050MA) and 128 µg/mL with B. contaminans MF16 (B. contaminans MF16).

For the compound `C[P+](C)(C)[Au-][S]CC(O)CO` (racemic) [WB-19-HL4171], the MIC was 32 µg/mL with B. lata BCC6 (B. lata BCC6); 16 µg/mL against B. cenocepacia 140485 (B. cenocepacia 140485); 32 µg/mL in the series with B. contaminans FFH-4004 (B. contaminans FFH-4004); 64 µg/mL with B. dolosa CEP021 (B. dolosa CEP021); above 128 µg/mL with B. ubonensis LMG 20358 (B. ubonensis LMG 20358); 32 µg/mL with B. multivorans ATCC17616 (B. multivorans ATCC17616). For the same compound, the MIC was 32 µg/mL in the series on B. cenocepacia K56-2 [1] (setting [5]), 32 µg/mL in [2] (B. contaminans FFH-2050MA) and 64 µg/mL with B. contaminans MF16 (B. contaminans MF16).

With `CC(C)(O/N=C(\C(=O)N[C@@H]1C(=O)N2C(C(=O)[O-])=C(C[n+]3ccccc3)CS[C@H]12)c1csc(N)n1)C(=O)O` [CAZ, ceftazidime, reference compound], the MIC amounted to 64 µg/mL (≈ 117 µM) against B. lata BCC6 (Burkholderia lata, BCC6); 8 µg/mL (≈ 14.6 µM) against B. cenocepacia 140485 (setting [6]); 8 µg/mL (≈ 14.6 µM) with B. contaminans FFH-4004 (setting [7]); 16 µg/mL (≈ 29.3 µM) with B. dolosa CEP021 (Burkholderia dolosa, CEP021); 16 µg/mL (≈ 29.3 µM) against B. ubonensis LMG 20358 (setting [8]); 16 µg/mL (≈ 29.3 µM) against B. multivorans ATCC17616 (setting [9]). In addition, the MIC came to 32 µg/mL (≈ 58.5 µM) against B. cenocepacia K56-2 [1] (Burkholderia cenocepacia); 8 µg/mL (≈ 14.6 µM) in [2] (setting [10]); 32 µg/mL (≈ 58.5 µM) in the series on B. contaminans MF16 (Burkholderia contaminans, MF16).

On to `C[C@@H](O)[C@H]1C(=O)N2C(C(=O)O)=C(S[C@@H]3CN[C@H](C(=O)N(C)C)C3)[C@H](C)[C@H]12` [MEM, meropenem, reference compound], for which the MIC amounted to 4 µg/mL (≈ 10.4 µM) in the series with B. lata BCC6 (Burkholderia lata, BCC6); 16 µg/mL (≈ 41.7 µM) against B. cenocepacia 140485 (setting [6]); 8 µg/mL (≈ 20.9 µM) against B. contaminans FFH-4004 (setting [7]); 8 µg/mL (≈ 20.9 µM) against B. dolosa CEP021 (Burkholderia dolosa, CEP021); 16 µg/mL (≈ 41.7 µM) against B. ubonensis LMG 20358 (setting [8]); 4 µg/mL (≈ 10.4 µM) against B. multivorans ATCC17616 (setting [9]). Moreover, the MIC in the series with B. cenocepacia K56-2 [1] (Burkholderia cenocepacia) was 16 µg/mL (≈ 41.7 µM); in series [2] (setting [10]) it was 4 µg/mL (≈ 10.4 µM); with B. contaminans MF16 (Burkholderia contaminans, MF16), 8 µg/mL (≈ 20.9 µM). For the same compound, the “persister frequency (percent survival)” value in the series on B. cenocepacia K56-2 [3] (5× MIC) was “low amount of persisters”; in the series on B. cenocepacia K56-2 [3] (10× MIC), “low amount of persisters”; in the series on B. cenocepacia K56-2 [3] (5× and 10× MIC tested, concentration not told apart), 5–7%. For the same compound, the “Percent survival of C. elegans” value with C. elegans DH26 (4 μg/mL) turned out to be 100%; with C. elegans DH26 (8 μg/mL) it was 100%; with C. elegans DH26 (16 μg/mL), 100%; in the series with C. elegans DH26 (32 μg/mL) it was 100%; in the series on C. elegans DH26 (64 μg/mL), 100%; in the series with C. elegans DH26 (128 μg/mL), 97.4%. Moreover, the “Percent survival of C. elegans” value with C. elegans DH26 (256 μg/mL) is listed as 93.2%. Also, the figures for the “Survival100/MIC Ratio” value in the series with C. elegans DH26 and with C. elegans DH26 (listed as meropenem) were 4 and “four”, respectively.

Take `NC[C@H]1O[C@H](O[C@H]2[C@H](O)[C@@H](O[C@H]3O[C@H](CO)[C@@H](O)[C@H](N)[C@H]3O)[C@H](N)C[C@@H]2N)[C@H](N)C[C@@H]1O` [TOB, tobramycin, reference compound]: the MIC was found to be 128 µg/mL (≈ 274 µM) in the series on B. lata BCC6 (Burkholderia lata, BCC6); 128 µg/mL (≈ 274 µM) against B. cenocepacia 140485 (setting [6]); 64 µg/mL (≈ 137 µM) against B. contaminans FFH-4004 (setting [7]); 128 µg/mL (≈ 274 µM) against B. dolosa CEP021 (Burkholderia dolosa, CEP021); 128 µg/mL (≈ 274 µM) against B. ubonensis LMG 20358 (setting [8]); 64 µg/mL (≈ 137 µM) against B. multivorans ATCC17616 (setting [9]). Also, the MIC is 512 µg/mL (≈ 1100 µM) against B. cenocepacia K56-2 [1] (Burkholderia cenocepacia); 128 µg/mL (≈ 274 µM) in series [2] (setting [10]); 32 µg/mL (≈ 68.4 µM) in the series with B. contaminans MF16 (Burkholderia contaminans, MF16).

For `CC[P+](CC)(CC)[Au-][S][C@@H]1O[C@H](CO)[C@@H](O)[C@H](O)[C@H]1O` [WB-18-FI3683], the MIC against B. lata BCC6 (B. lata BCC6) is 128 µg/mL; in the series on B. cenocepacia 140485 (B. cenocepacia 140485), 64 µg/mL; in the series on B. contaminans FFH-4004 (B. contaminans FFH-4004), above 128 µg/mL; in the series on B. dolosa CEP021 (B. dolosa CEP021), above 128 µg/mL; in the series with B. ubonensis LMG 20358 (B. ubonensis LMG 20358), above 128 µg/mL; against B. multivorans ATCC17616 (B. multivorans ATCC17616) it was 128 µg/mL. For the same compound, the MIC against B. cenocepacia K56-2 [1] (setting [5]) was above 128 µg/mL; in series [2] (B. contaminans FFH-2050MA), 128 µg/mL; with B. contaminans MF16 (B. contaminans MF16), 128 µg/mL.

As to `CC(=O)N[C@@H]1[C@@H](O)[C@H](O)[C@@H](CO)O[C@H]1[S][Au-][P+](C)(C)C` [WB-19-HB2664], the MIC in the series on B. lata BCC6 (B. lata BCC6) was 128 µg/mL; in the series on B. cenocepacia 140485 (B. cenocepacia 140485) it was 128 µg/mL; in the series on B. contaminans FFH-4004 (B. contaminans FFH-4004) it was 128 µg/mL; with B. dolosa CEP021 (B. dolosa CEP021) it was above 128 µg/mL; in the series with B. ubonensis LMG 20358 (B. ubonensis LMG 20358), 128 µg/mL; in the series with B. multivorans ATCC17616 (B. multivorans ATCC17616), 128 µg/mL. The MIC against B. cenocepacia K56-2 [1] (setting [5]) is above 128 µg/mL; in [2] (B. contaminans FFH-2050MA), 64 µg/mL; in the series on B. contaminans MF16 (B. contaminans MF16) it was 128 µg/mL.

Regarding `CC(=O)OC[C@H]1O[C@@H]([S][Au-][P+](C)(C)C)[C@H](OC(C)=O)[C@@H](OC(C)=O)[C@@H]1OC(C)=O` [WB-19-HG5899], the MIC against B. lata BCC6 (B. lata BCC6) is 128 µg/mL; against B. cenocepacia 140485 (B. cenocepacia 140485), 128 µg/mL; in the series on B. contaminans FFH-4004 (B. contaminans FFH-4004), 128 µg/mL; with B. dolosa CEP021 (B. dolosa CEP021), above 128 µg/mL; in the series with B. ubonensis LMG 20358 (B. ubonensis LMG 20358) it was 128 µg/mL; against B. multivorans ATCC17616 (B. multivorans ATCC17616), 128 µg/mL. In addition, the MIC is above 128 µg/mL against B. cenocepacia K56-2 [1] (setting [5]), 64 µg/mL in [2] (B. contaminans FFH-2050MA) and 128 µg/mL against B. contaminans MF16 (B. contaminans MF16).

As for `CP(C)C.CP(C)C.F[P-](F)(F)(F)(F)F.[Au+]` [WB-19-HL4121a], the MIC against B. lata BCC6 (B. lata BCC6) turned out to be 32 µg/mL; against B. cenocepacia 140485 (B. cenocepacia 140485), 32 µg/mL; in the series with B. contaminans FFH-4004 (B. contaminans FFH-4004) it was 64 µg/mL; against B. dolosa CEP021 (B. dolosa CEP021) it was 128 µg/mL; in the series with B. ubonensis LMG 20358 (B. ubonensis LMG 20358) it was 128 µg/mL; in the series on B. multivorans ATCC17616 (B. multivorans ATCC17616), 64 µg/mL. In addition, the figures for the MIC (with B. cenocepacia K56-2 [1] (setting [5]); in series [2] (B. contaminans FFH-2050MA); against B. contaminans MF16 (B. contaminans MF16)) were 128 µg/mL, 32 µg/mL and 32 µg/mL, respectively.

Regarding `C[P+](C)(C)[Au-][S]CCCO` [WB-19-HL4172], the MIC against B. lata BCC6 (B. lata BCC6) amounted to 16 µg/mL; against B. cenocepacia 140485 (B. cenocepacia 140485), 32 µg/mL; in the series with B. contaminans FFH-4004 (B. contaminans FFH-4004), 32 µg/mL; with B. dolosa CEP021 (B. dolosa CEP021), 32 µg/mL; with B. ubonensis LMG 20358 (B. ubonensis LMG 20358), 32 µg/mL; with B. multivorans ATCC17616 (B. multivorans ATCC17616) it was 32 µg/mL. Further, the MIC against B. cenocepacia K56-2 [1] (setting [5]) stood at 32 µg/mL; in series [2] (B. contaminans FFH-2050MA), 16 µg/mL; with B. contaminans MF16 (B. contaminans MF16), 32 µg/mL.

For the compound `C[P+](C)(C)[Au-][S]CCN` [WB-19-HL4181], the MIC against B. lata BCC6 (B. lata BCC6) came to 16 µg/mL; against B. cenocepacia 140485 (B. cenocepacia 140485), 32 µg/mL; against B. contaminans FFH-4004 (B. contaminans FFH-4004), 32 µg/mL; against B. dolosa CEP021 (B. dolosa CEP021) it was 64 µg/mL; in the series with B. ubonensis LMG 20358 (B. ubonensis LMG 20358), 32 µg/mL; in the series on B. multivorans ATCC17616 (B. multivorans ATCC17616) it was 32 µg/mL. For the same compound, the MIC in the series with B. cenocepacia K56-2 [1] (setting [5]) was determined as 32 µg/mL; in series [2] (B. contaminans FFH-2050MA), 32 µg/mL; against B. contaminans MF16 (B. contaminans MF16), 64 µg/mL.

As to `O=C(O)c1cn(C2CC2)c2cc(N3CCNCC3)c(F)cc2c1=O` [ciprofloxacin, reference compound], the “killing of ciprofloxacin-generated persister cells” value in [4] is recorded as “not killed”.

Values taken from PMC8697972, “New Auranofin Analogs with Antibacterial Properties against Burkholderia Clinical Isolates” (Antibiotics, 2021).
